Experimental findings from ChEMBL document CHEMBL5233276, “Cathepsin C inhibitors as anti-inflammatory drug discovery: Challenges and opportunities” (Eur J Med Chem, 2021) are described below.

Experiment [1] addresses T1, Dipeptidyl peptidase 1 (Homo sapiens, UniProt P53634). Description: Inhibition of human Cathepsin C using Ala-4-[ 125 I]Phe-DMK as substrate preincubated for 30 mins followed by substrate addition measured after 6 to 24 hrs.
Another experiment relates to Mus musculus. The experiment is described as follows: Inhibition of Cathepsin C in mouse spleen measured at 5 mg/kg ip, relative to control. Format: organism-based.
Experiment [2] deals with T1, Dipeptidyl peptidase 1. The experiment is described as follows: Inhibition of human Cathepsin C using Z-Arg-Arg-AM as substrate at 3 microM relative to control.
Experiment [3] has as its target T1, Dipeptidyl peptidase 1. The experiment is described as follows: Inhibition of human Cathepsin C using Gly-Phe-paranitroanilide as substrate incubated for 12 mins.
Experiment [4] addresses T1, Dipeptidyl peptidase 1. Description: Inhibition of human Cathepsin C using Gly-Phe-AMC as substrate assessed as kobs/[I].
Experiment [5] has as its target T1, Dipeptidyl peptidase 1. Description: Inhibition of Cathepsin C (unknown origin).
The target of experiment [6] is T1, Dipeptidyl peptidase 1. Description: Inhibition of human Cathepsin C using Gly- L -Phe-p-nitroanilide.HCl as substrate.

SMILES strings stand for the structures. Where a SMILES comes first, the peptide text is derived from it. The star is where a group is joined. CHN2 = [N-]=[N+]=C*

T1 sequence (P53634 25-134 limits assumed): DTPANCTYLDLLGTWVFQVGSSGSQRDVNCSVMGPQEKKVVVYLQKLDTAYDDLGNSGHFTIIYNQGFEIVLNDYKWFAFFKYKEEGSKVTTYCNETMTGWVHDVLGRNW
T1 sequence (P53634 231-394 limits assumed): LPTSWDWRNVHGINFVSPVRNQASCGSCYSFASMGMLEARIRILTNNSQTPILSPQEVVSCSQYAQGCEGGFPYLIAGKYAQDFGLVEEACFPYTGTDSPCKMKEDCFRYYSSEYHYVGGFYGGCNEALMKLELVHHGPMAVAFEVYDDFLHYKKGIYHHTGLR
T1 sequence (P53634 395-463 limits assumed): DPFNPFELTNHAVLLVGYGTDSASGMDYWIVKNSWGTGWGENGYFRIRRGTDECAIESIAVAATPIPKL

As usually defined, the IC50 is the concentration at which inhibition is half-maximal. A high value points to lower potency. On Dipeptidyl peptidase 1 [1], `N#[N+][CH-]C(=O)[C@H](Cc1ccccc1)NC(=O)CN` yielded an IC50 of 50 nM. Usually inhibition stands for the relative decrease from the control value, in per cent. A higher inhibition goes with a response far below the control. Consider `[N-]=[N+]=CC(=O)[C@H](Cc1ccccc1)NC(=O)CN` (H-Gly-Phe-CHN2), for which the inhibition in the experiment with Mus musculus and against Dipeptidyl peptidase 1 [2] was over 90% throughout. On to `CC[C@H](N)C(=O)N[C@]1(C#N)C[C@@H]1c1ccc(-c2ccc(S(=O)(=O)N3CCN(C)CC3)cc2)cc1`, for which the IC50 at Dipeptidyl peptidase 1 [3] was 15 nM.

Consider `C[C@H](N)C(=O)N[C@H](/C=C/S(=O)(=O)c1ccccc1)CCc1ccccc1`, for which, at Dipeptidyl peptidase 1 [4], the Ratio is 2 10^6/M/s. For the same compound, the ID50 on Dipeptidyl peptidase 1 [2] stood at 100 nM.

Compound `C=CC(=O)Nc1cc2c(Nc3ccc(F)c(Cl)c3)ncnc2cc1OCCCN1CCOCC1` [CANERTINIB] returned an IC50 at Dipeptidyl peptidase 1 [5] of 120 nM. With `CC(C)CC(NC(=O)CN)P(=O)(O)CCC(=O)O` (stereo unspecified), it took 39000 nM to reach half-maximal inhibition against Dipeptidyl peptidase 1 [6] (IC50). In the case of `CC[C@@H](/C=C/C(=O)N1CCc2ccccc21)NC(=O)C1(N)CCOCC1`, the IC50 against Dipeptidyl peptidase 1 [5] came to 1 nM. For `C[C@@H](O)[C@H](N)C(=O)N[C@@H](/C=C/S(C)(=O)=O)CCC(=O)O`, the Ratio at Dipeptidyl peptidase 1 [4] came out at 2900 M⁻¹ s⁻¹. Moreover, the IC50 at Dipeptidyl peptidase 1 [2] amounted to 4900 nM.
